Non-standard residues stand in square brackets, D forms with d. Residues, ends and D or L forms follow the SMILES beside them. sY = N[C@@H](Cc1ccc(OS(=O)(=O)O)cc1)C(=O)O; pGlu = O=C1CC[C@@H](C(=O)O)N1
How the values were obtained:
[1] = tested on: Aplysia californica; assay: Feeding behavior (food intake) in intact animals after peptide injection; assay type: in vivo; settings: for Behavioral effect (food intake), summary grade: Table S1 summary in words; for Food intake (seaweed consumed in a single meal): food-deprived animals
Description: To explore the role of apCCKs as satiety signals in mollusks, we examined their effects on food intake. […] The remaining four forms had no impact (Figure S9). Moreover, [sY6, sY8]-apCCK1 slowed food consumption (Figure 2E), which could stem, in part, from a shift from ingestive to egestive patterns as the meal progressed. [sY6, sY8]-apCCK1 also extended the duration to consume one strip of seaweed compared to controls (Figure 2F), further mimicking natural satiety.
Behavioral experiments were conducted in two batches, each using animals from separate shipments. In the first batch (Figure 2), animals were larger, with an average body weight of 93.3 ± 4.8 g, and were food-deprived for 7 days prior to testing. In the second batch (Figure S9), animals were smaller (average weight: 70.6 ± 4.0 g) and were food-deprived for 5 days to account for their reduced size. In each experiment, two weight-matched animals were housed in separate round net cages (17 cm diameter and 17 cm height) that were placed in a 500 L tank filled with circulating aerated ASW (14°C–16°C). To ensure that the animals were responsive to food, they were first pretested with a small piece of seaweed. After this pretest, in each pair, one animal was injected (into the hemocoel using a syringe needle) with apCCKs freshly dissolved in 1.5 mL ASW, whereas the other was injected with 1.5 mL of ASW. Three minutes later, the feeding session commenced. Animals were hand-fed seaweed (Shirako, Tokyo, Japan) cut in 1 × 10 cm strips, weighing ~0.1 g, increasing 10-fold when hydrated. This hand-feeding approach has been used in prior study of Aplysia feeding behavior.[146],[147] The consumed seaweed amount was converted to hydrated weight and normalized to the animal’s body weight. Each strip of seaweed was delivered to the mouth area with forceps. Feeding was terminated after 1 h or when animals stopped ingesting seaweed for 3 min.

[2] = tested on: CBI-2-elicited feeding motor programs; assay: CBI-2-elicited feeding motor programs in isolated cerebral and buccal ganglia; design: species or system Aplysia californica; settings: for B8 activity (frequency) during retraction: 10^-6 M and 10^-5 M; for Feeding program effect, summary grade: Table S1 summary in words
Procedure: To explore the neural basis of the behavioral effects of apCCKs, we examined their modulation of feeding-motor programs in isolated ganglia. All eight forms of apCCKs were tested on programs induced by CBI-2, a command-like interneuron that is active during food-elicited feeding behavior[56] and provides potent excitatory inputs to buccal central pattern generator (CPG) interneurons,[54],[77] orchestrating ingestive motor programs (Figure S23A). Stable single-cycle motor programs were evoked by stimulating CBI-2 at 8–10 Hz throughout the protraction phase with a 90-s intertrial interval. Two concentrations, 10^−6 M and 10^−5 M, of apCCKs were tested.
(§1) Intracellular and extracellular recordings were made as described previously.[57]–[59],[61],[151] To prevent movements of ganglia caused by myoactive apCCK (especially [sY8]-apCCK1 and [sY6, sY8]-apCCK1) during bath application, we treated the ganglia with 0.8% protease IX for 1–2 min prior to desheathing. Subsequently, ganglia were desheathed, transferred to a recording chamber containing ~1.5 mL of ASW (460 mM NaCl, 10 mM KCl, 11mM CaCl2, 55 mM MgCl2, and 10 mM HEPES, pH 7.6), continuously perfused at 0.3 mL/min, and maintained at 14°C–17°C. The experiments examining the effects of apCCKs on excitability of B20/B34/B61/62/B65/B64 neurons were performed in a high divalent saline (368 mM NaCl, 8 mM KCl, 13.8 mM CaCl2, 115 mM MgCl2, and 10 mM HEPES, pH 7.6), which increases the spiking threshold of neurons and therefore curtails polysynaptic influences. Intracellular recordings were obtained using 5–10 MΩ sharp microelectrodes filled with an electrolyte (0.6 M K2SO4 plus 60 mM KCl). Extracellular recordings were acquired from polyethylene suction electrodes. Grass S88 and WPI Pulsemaster A300 stimulators were used to provide timing signals for intracellular and extracellular stimulation. To determine the effects of various forms of apCCKs on Aplysia feeding programs, we performed experiments with the cerebral and buccal ganglia. Freshly made apCCK solution in ASW was perfused into the recording chamber. Feeding-motor programs were elicited by stimulation of command-like neuron CBI-2 at 8–10 Hz or stimulation of the EN at 2 Hz, 3 ms, 15 V, and were monitored by bursting activity of the I2 nerve of the buccal ganglion.[58],[59],[61] Typically, we recorded from motor neuron B8, and one interneuron, e.g., B40 or B20. To determine effects of apCCKs on synaptic strength, we stimulated presynaptic neuron, CBI-2, B34 (plus 1 nA current) or B65 at 10 Hz for 2 s for several trials and waited 1 min between each trial. The stimulation duration for each trial was set at 2 s because this allows the expression of synaptic facilitation without evoking too many spikes. Typically, the amplitude of the last EPSP at each concentration of peptides was quantified unless otherwise stated.

[3] = tested on: EN-elicited feeding motor programs; assay: EN-elicited egestive motor programs in isolated ganglia; design: species or system Aplysia californica; settings: EN stimulation at 2 Hz
Description: Although protraction (B61/62) activity is inhibited by apCCKs during CBI-2-elicited programs, this might not be the case for the egestive motor programs elicited by EN stimulation, which could contribute positively to satiety. We therefore examined [sY8]-apCCK1 effects on B61/62 activity in EN-elicited egestive motor programs. […] This difference may be explained in part by effects on the interneuron B65, which is strongly active during EN programs but not during CBI-2 programs,[56],[81]–[83] whereas the opposite is true for B34.[54],[61] B65 elicits fast excitatory postsynaptic potentials (EPSPs) in B61/62.[81] [sY8]-apCCK1 increased B65 excitability (Figures 6M and 6N) and EPSPs from B65 to B61/62 (Figures 6O and 6P), which could account for the increase of B61/62 activity during EN programs.
Intracellular and extracellular recordings were made as described previously.[57]–[59],[61],[151] […] Feeding-motor programs were elicited by stimulation of command-like neuron CBI-2 at 8–10 Hz or stimulation of the EN at 2 Hz, 3 ms, 15 V, and were monitored by bursting activity of the I2 nerve of the buccal ganglion.[58],[59],[61] Typically, we recorded from motor neuron B8, and one interneuron, e.g., B40 or B20. […] Typically, the amplitude of the last EPSP at each concentration of peptides was quantified unless otherwise stated.

[4] = tested on: B20, B40, B64, B34, B61/62, B65 neurons and CBI-2 synapses; assay: Electrophysiology: excitability and synaptic strength of identified feeding-circuit neurons; design: species or system Aplysia californica
Description: To characterize apCCK mechanisms of action, we investigated their effects on synaptic and intrinsic plasticity of key circuit elements. […] However, [sY8]-apCCK1 decreased synaptic strength between CBI-2 and B40 (Figures S26C and S26D).
as §1

[5] = injection into hemocoel of apCCK solutions (10^-7 M or 10^-6 M) vs ASW
[6] = presynaptic stimulation 10 Hz for 2 s, last EPSP

## CC(C)C[C@H](NC(=O)CNC(=O)[C@H](Cc1ccc(OS(=O)(=O)O)cc1)NC(=O)[C@H](CC(=O)O)NC(=O)[C@H](Cc1ccc(OS(=O)(=O)O)cc1)NC(=O)[C@H](CO)NC(=O)[C@H](Cc1c[nH]c2ccccc12)NC(=O)[C@H](C)NC(=O)CNC(=O)[C@@H]1CCC(=O)N1)C(=O)NCC(=O)NCC(=O)NCC(=O)N[C@@H](CCCNC(=N)N)C(=O)N[C@@H](Cc1ccccc1)C(N)=O [[sY6, sY8]-apCCK1] ([pGlu]GAWS[sY]D[sY]GLGGGRF-NH2)
[1]
  Behavioral effect (food intake), summary grade: Strong
[1]; injected with 10^-8 M, compared with control animals
  Time to consume one strip of seaweed (average of the first three strips): took longer
[1]; [5]
  Food intake (seaweed consumed in a single meal): strongly reduced food intake
[2]; 10^-6 M and 10^-5 M tested
  Protraction duration of CBI-2 programs: shortened
[2]; CBI-2 programs
  B8 activity (frequency) during retraction: reduced
[2]
  Feeding program effect, summary grade: Strong

## CC(C)C[C@H](NC(=O)CNC(=O)[C@H](Cc1ccc(O)cc1)NC(=O)[C@H](CC(=O)O)NC(=O)[C@H](Cc1ccc(OS(=O)(=O)O)cc1)NC(=O)[C@H](CO)NC(=O)[C@H](Cc1c[nH]c2ccccc12)NC(=O)[C@H](C)NC(=O)CNC(=O)[C@@H]1CCC(=O)N1)C(=O)NCC(=O)NCC(=O)NCC(=O)N[C@@H](CCCNC(=N)N)C(=O)N[C@@H](Cc1ccccc1)C(N)=O [[sY6]-apCCK1] ([pGlu]GAWS[sY]DYGLGGGRF-NH2)
[1]
  Behavioral effect (food intake), summary grade: No effect
[1]; [5]
  Food intake (seaweed consumed in a single meal): did not influence feeding
[2]
  Feeding program effect, summary grade: No effect

## CC(C)C[C@H](NC(=O)CNC(=O)[C@H](Cc1ccc(OS(=O)(=O)O)cc1)NC(=O)[C@H](CC(=O)O)NC(=O)[C@H](Cc1ccc(O)cc1)NC(=O)[C@H](CO)NC(=O)[C@H](Cc1c[nH]c2ccccc12)NC(=O)[C@H](C)NC(=O)CNC(=O)[C@@H]1CCC(=O)N1)C(=O)NCC(=O)NCC(=O)NCC(=O)N[C@@H](CCCNC(=N)N)C(=O)N[C@@H](Cc1ccccc1)C(N)=O [[sY8]-apCCK1] ([pGlu]GAWSYD[sY]GLGGGRF-NH2)
[1]
  Behavioral effect (food intake), summary grade: Strongest
[1]; injection into hemocoel, 10^-8 M or 10^-7 M
  Food intake (seaweed consumed in a single meal): completely inhibiting consumption
[3]
  B61/62 firing frequency in EN-elicited programs: increased
[4]
  B40 excitability: enhanced
  Synaptic strength between CBI-2 and B40: decreased
[4]; 10^-6 M, high divalent saline
  B20 excitability: significantly enhanced
[4]; first EPSP of each stimulation trial
  EPSPs from B65 to B61/62: increased
[4]; high divalent saline
  B34 excitability: enhanced
  B61/62 excitability: enhanced
  B64 excitability: enhanced
  B65 excitability: increased
[4]; higher concentration (10^-5 M), high divalent saline
  B20 excitability: no significant effect
[4]; [6]
  Synaptic strength between B34 and B61/62: decreased
  Synaptic strength between CBI-2 and B34: decreased
  Synaptic strength between CBI-2 and B61/62: decreased
[2]; 10^-6 M
  B20 firing frequency in CBI-2 programs: increased
  Type of CBI-2-elicited motor program: shifted ingestive programs to egestive
[2]; 10^-6 M and 10^-5 M tested
  B34 frequency in CBI-2 programs: decreased
  B40 firing frequency in CBI-2 programs: decreased
  B61/62 frequency in CBI-2 programs: decreased
  Protraction duration of CBI-2 programs: shortened
  Retraction duration of CBI-2 programs: shortened
[2]; CBI-2 programs, 10^-5 M
  B8 activity during protraction: decreased
[2]; CBI-2 programs, 10^-6 M
  B8 activity during protraction: significantly increased
[2]; CBI-2 programs
  B8 activity (frequency) during retraction: significantly decreased
[2]; CBI-2 programs, 10^-6 M and 10^-5 M tested
  Firing frequency of the I2 nerve: significantly decreased
[2]
  Feeding program effect, summary grade: Strongest

## CC(C)C[C@H](NC(=O)CNC(=O)[C@H](Cc1ccc(O)cc1)NC(=O)[C@H](CC(=O)O)NC(=O)[C@H](Cc1ccc(O)cc1)NC(=O)[C@H](CO)NC(=O)[C@H](Cc1c[nH]c2ccccc12)NC(=O)[C@H](C)NC(=O)CNC(=O)[C@@H]1CCC(=O)N1)C(=O)NCC(=O)NCC(=O)NCC(=O)N[C@@H](CCCNC(=N)N)C(=O)N[C@@H](Cc1ccccc1)C(N)=O [apCCK1] ([pGlu]GAWSYDYGLGGGRF-NH2)
[1]
  Behavioral effect (food intake), summary grade: No effect
[1]; [5]
  Food intake (seaweed consumed in a single meal): did not influence feeding
[2]
  Feeding program effect, summary grade: No effect

Source: paper PMC12535377, “Synaptic and intrinsic plasticity mediated by CCK-type signaling coordinates behavioral changes during motivational state shifts” (Cell reports, 2025)
